Measured values: patent publication US5460806A, “Bis(2-mercaptoethyl) sulfone” (President and Fellows of Harvard College, priority 1993, dated 1995)
“Also recorded” adds a separate entry of the source.

Key:
[1] = cited from earlier work; for reducing strength: reduction of a disulfide bond
[2] = thiol/disulfide equilibrium (reduction strength) relative to oxidized mercaptoethanol
Description: In addition to a fast rate of reduction, a useful dithiol should be strongly reducing in order to reduce disulfides quantitatively and to maintain thiols in the reduced state without the inconvenience of mixed disulfides. […] We have used this equilibrium to evaluate several dithiols in terms of their reduction strength.
(§1) The following is taken from Lamoureux and Whitesides, 58 J. Org. Chem. 633, 1993, hereby incorporated by reference herein. The general methodology and equations used for analysis are presented there, and are not repeated here.

[3] = stability of aqueous solution of the dithiol; assay type: physicochemical; details: over several days, protected from atmospheric oxygen
pKa of the dithiol = assay type: physicochemical
Description: as §1

SMILES | rate of reduction (in words), pH=7 ([1]; pH=7, background statement) | reducing strength ([1]; background statement) | rate of reduction (in words) ([1]; background statement, pH not given) | equilibrium constant relative to oxidized mercaptoethanol [2] | signs of decomposition of aqueous solution [3] | pKa (pKa of the dithiol)
O[C@H](CS)[C@H](O)CS (racemic) [DTT, Dithiothreitol] | kinetically slow | strong reductant; also recorded: one of the most strongly reducing dithiols | – | – | – | –
OCCS [Mercaptoethanol] | – | weak | slow | – | – | –
O=S(=O)(CCS)CCS [bis(2-mercaptoethyl) sulfone, Bis(2-mercaptoethyl) sulfone] | – | – | – | about 63 | no signs of decomposition | ~7.9
